Reference: ChEMBL document CHEMBL1201862, “PubChem BioAssay data set” (2004)
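1) Cells in 96-well plates. 2) Compound, 48 h, 5 concentrations. 3) Linear interpolation between surrounding doses. 4) Unreached endpoint = highest concentration. Here, GI50 denotes the concentration required for 50% inhibition of growth.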 The source made the active and inactive calls. Cut-off read from the data, not from the text of the source: active = GI50 up to about 1.1 µM and inactive = higher.

Tests used:
Assay in all cases: NCI-60 cell line screen, 48 h
SK-MEL-28 = test system: SK-MEL-28
NCI-H460 = test system: NCI-H460
K562 = test system: K562
RPMI-8226 = test system: RPMI-8226
CAKI-1 = test system: CAKI-1
U-251 = test system: U-251
COLO 205 = test system: COLO 205
SW-620 = test system: SW-620
HL-60 = test system: HL-60
Malme-3M = test system: Malme-3M
HT-29 = test system: HT-29
MOLT-4 = test system: MOLT-4
SK-MEL-5 = test system: SK-MEL-5
SF-295 = test system: SF-295
SN12C = test system: SN12C
UACC-257 = test system: UACC-257
SK-OV-3 = test system: SK-OV-3
UO-31 = test system: UO-31
SNB-75 = test system: SNB-75
SF-539 = test system: SF-539

SMILES	GI50 (SK-MEL-28)	GI50 (NCI-H460)	GI50 (K562)	GI50 (RPMI-8226)	GI50 (CAKI-1)	GI50 (U-251)	GI50 (COLO 205)	GI50 (SW-620)	GI50 (HL-60)	GI50 (Malme-3M)	GI50 (HT-29)	GI50 (MOLT-4)	GI50 (SK-MEL-5)	GI50 (SF-295)	GI50 (SN12C)	GI50 (UACC-257)	GI50 (SK-OV-3)	GI50 (UO-31)	GI50 (SNB-75)	GI50 (SF-539)
OC(c1ccc(Cl)cc1)(c1ccc(Cl)cc1)c1cncnc1	18.7 µM (inactive)	18.2 µM (inactive)	4.5 µM (inactive)	27.2 µM (inactive)	17.6 µM (inactive)	19.3 µM (inactive)	19 µM (inactive)	21.1 µM (inactive)	> 10 µM (inactive)	33.7 µM (inactive)	16.6 µM (inactive)	14.8 µM (inactive)	13.6 µM (inactive)	19.1 µM (inactive)	26.7 µM (inactive)	19.2 µM (inactive)	> 10 µM (inactive)	16 µM (inactive)	21.2 µM (inactive)	
O=S(=O)(O)c1ccc(-c2c3nc(c(-c4ccc(S(=O)(=O)O)cc4)c4ccc([nH]4)c(-c4ccc(S(=O)(=O)O)cc4)c4nc(c(-c5ccc(S(=O)(=O)O)cc5)c5ccc2[nH]5)C=C4)C=C3)cc1	24.1 µM (inactive)	57.5 µM (inactive)	37.2 µM (inactive)	52.8 µM (inactive)	28.3 µM (inactive)	60.5 µM (inactive)	42 µM (inactive)	97.5 µM (inactive)	55.5 µM (inactive)	32.5 µM (inactive)	49.8 µM (inactive)	3.1 µM (inactive)	51.2 µM (inactive)	47.4 µM (inactive)	42.7 µM (inactive)	> 100 µM (inactive)	58.3 µM (inactive)	37.4 µM (inactive)	> 100 µM (inactive)	> 100 µM (inactive)
NC(CCOCCP(=O)(O)O)C(=O)O (configuration not stated)	> 100 µM (inactive)	> 100 µM (inactive)	> 100 µM (inactive)	> 100 µM (inactive)	> 100 µM (inactive)	> 100 µM (inactive)	> 100 µM (inactive)	> 100 µM (inactive)	> 100 µM (inactive)		> 100 µM (inactive)	> 100 µM (inactive)	> 100 µM (inactive)	> 100 µM (inactive)	> 100 µM (inactive)	> 100 µM (inactive)	> 100 µM (inactive)	> 100 µM (inactive)	> 100 µM (inactive)	> 100 µM (inactive)
CC(SC1=CC(=O)c2c(Cl)ccc(O)c2C1=O)C(=O)O (configuration not stated)	18.5 µM (inactive)	26.6 µM (inactive)	18.7 µM (inactive)	19.8 µM (inactive)		17.7 µM (inactive)	21.3 µM (inactive)	19.4 µM (inactive)	2.79 µM (inactive)	19.7 µM (inactive)	> 10 µM (inactive)	18.5 µM (inactive)	14.3 µM (inactive)	19 µM (inactive)	16.7 µM (inactive)	15.8 µM (inactive)			16.9 µM (inactive)	18.3 µM (inactive)
O=c1[nH]nc(NCc2ccccc2)c2nnn(Cc3ccccc3)c12	> 100 µM (inactive)	> 100 µM (inactive)	> 100 µM (inactive)	> 100 µM (inactive)	> 100 µM (inactive)	> 100 µM (inactive)	> 100 µM (inactive)		> 100 µM (inactive)	> 100 µM (inactive)	> 100 µM (inactive)	> 100 µM (inactive)	> 100 µM (inactive)	> 100 µM (inactive)	> 100 µM (inactive)	> 100 µM (inactive)		> 100 µM (inactive)		
CCOC(=O)/C(=C\NC#N)c1nc2ccccc2[nH]1	> 100 µM (inactive)	60.5 µM (inactive)		78.5 µM (inactive)	> 100 µM (inactive)		> 100 µM (inactive)	> 100 µM (inactive)	45.5 µM (inactive)	> 100 µM (inactive)	> 100 µM (inactive)	5.75 µM (inactive)	65.2 µM (inactive)	> 100 µM (inactive)	> 100 µM (inactive)	> 100 µM (inactive)	> 100 µM (inactive)	1.28 µM (inactive)	> 100 µM (inactive)	> 100 µM (inactive)
CC1C(O)[C@@]2(OC[C@@]34C(=O)CC5(O)[C@H](CCC6Cc7nc8c(nc7C[C@]65C)CC5CC[C@@H]6C7=C[C@H]9O[C@@]%10(O[C@@](C)(CO)C[C@@H]%10O)C(C)[C@@]9(O)[C@]7(C)[C@@H](O)CC6[C@]5(C)C8)C3=CC[C@H]4C2C)OC1(C)C (some centres not stated)		< 0.000355 µM (active)	< 0.000355 µM (active)	< 0.000355 µM (active)	0.0119 µM (active)	< 0.000355 µM (active)	0.00532 µM (active)	0.000385 µM (active)	< 0.000355 µM (active)	0.00287 µM (active)	0.000622 µM (active)	< 0.000355 µM (active)	0.00667 µM (active)	< 0.000355 µM (active)	0.628 µM (active)	0.00524 µM (active)	0.00226 µM (active)	0.0254 µM (active)	< 0.000355 µM (active)	< 0.000355 µM (active)
Nc1nc(=O)[nH][nH]1	> 100 µM (inactive)	> 100 µM (inactive)	> 100 µM (inactive)	> 100 µM (inactive)	> 100 µM (inactive)	> 100 µM (inactive)	> 100 µM (inactive)	> 100 µM (inactive)	> 100 µM (inactive)	> 100 µM (inactive)	> 100 µM (inactive)	> 100 µM (inactive)	> 100 µM (inactive)	> 100 µM (inactive)	> 100 µM (inactive)	> 100 µM (inactive)	> 100 µM (inactive)	> 100 µM (inactive)	> 100 µM (inactive)	> 100 µM (inactive)
CN(C)CCNC(=O)Cn1ccc(=O)c2ccc([N+](=O)[O-])cc21	> 100 µM (inactive)	> 100 µM (inactive)	> 100 µM (inactive)	> 100 µM (inactive)	> 100 µM (inactive)	> 100 µM (inactive)	47.1 µM (inactive)	> 100 µM (inactive)	> 100 µM (inactive)	44.7 µM (inactive)	52 µM (inactive)	> 100 µM (inactive)	> 100 µM (inactive)	> 100 µM (inactive)	> 100 µM (inactive)	> 100 µM (inactive)	> 100 µM (inactive)	> 100 µM (inactive)		> 100 µM (inactive)
CCOC(=O)C(=CNC(Cc1c[nH]c2ccccc12)C(=O)OC)C(=O)OCC (configuration not stated)	> 100 µM (inactive)	44.7 µM (inactive)	> 100 µM (inactive)	> 100 µM (inactive)	> 100 µM (inactive)	> 100 µM (inactive)	> 100 µM (inactive)	> 100 µM (inactive)	> 100 µM (inactive)	> 100 µM (inactive)	> 100 µM (inactive)	> 100 µM (inactive)	86.3 µM (inactive)	> 100 µM (inactive)	> 100 µM (inactive)		> 100 µM (inactive)	74.6 µM (inactive)	> 100 µM (inactive)	> 100 µM (inactive)
Cc1n[nH]c(N)c1C(N)=O	> 100 µM (inactive)		> 100 µM (inactive)	> 100 µM (inactive)	> 100 µM (inactive)	> 10 µM (inactive)	> 100 µM (inactive)	> 100 µM (inactive)	> 100 µM (inactive)	> 100 µM (inactive)	> 100 µM (inactive)	> 100 µM (inactive)	> 100 µM (inactive)	> 100 µM (inactive)	> 100 µM (inactive)	> 100 µM (inactive)	> 100 µM (inactive)	> 100 µM (inactive)	> 100 µM (inactive)	> 100 µM (inactive)
C[Si](C)(OCCS(=O)(=O)O)C1(Cc2cccc3ccccc23)S(=O)(=O)OCCOS1(=O)=O	17.1 µM (inactive)	21.1 µM (inactive)	26.4 µM (inactive)	18.4 µM (inactive)	17.5 µM (inactive)	20.3 µM (inactive)	12.3 µM (inactive)	16.3 µM (inactive)	8.26 µM (inactive)			34.9 µM (inactive)	17.3 µM (inactive)	20.2 µM (inactive)	18.2 µM (inactive)	28.1 µM (inactive)	15.6 µM (inactive)	17.9 µM (inactive)	15.5 µM (inactive)	18.6 µM (inactive)
C#CCOc1c(C(=O)OCC)c(=O)n(C)c2ccccc12	> 100 µM (inactive)	> 100 µM (inactive)	> 100 µM (inactive)	> 100 µM (inactive)	> 100 µM (inactive)	> 100 µM (inactive)	> 100 µM (inactive)	> 100 µM (inactive)	> 100 µM (inactive)	> 100 µM (inactive)	> 100 µM (inactive)	> 100 µM (inactive)	> 100 µM (inactive)	> 100 µM (inactive)	> 100 µM (inactive)		> 100 µM (inactive)	> 100 µM (inactive)	54.5 µM (inactive)	> 100 µM (inactive)
N=S(=O)(c1ccccc1)c1ccccc1	> 100 µM (inactive)	> 100 µM (inactive)	28.2 µM (inactive)	> 100 µM (inactive)	> 100 µM (inactive)	> 100 µM (inactive)	> 100 µM (inactive)	> 100 µM (inactive)	> 100 µM (inactive)	> 100 µM (inactive)	> 10 µM (inactive)	22 µM (inactive)	> 100 µM (inactive)	> 100 µM (inactive)	> 100 µM (inactive)	> 100 µM (inactive)	> 100 µM (inactive)	> 100 µM (inactive)	> 100 µM (inactive)	> 100 µM (inactive)
